Measured values published in patent publication US11053234B2 (GlaxoSmithKline Intellectual Property Development Limited, priority 2016, dated 2021).

Each compound was assayed against T1, haematopoietic prostaglandin D synthase (H-PGDS) (Homo sapiens, UniProt O60760) (assay: H-PGDS RapidFire high throughput mass spectrometry assay (conversion of PGH2 to PGD2)). Details: 10 nM H-PGDS, PGH2 formed in situ by COX-2 from arachidonic acid; read-out: Potency Range (mean pIC50) (converted).
T1 construct: Full length human H-PGDS cDNA (Invitrogen Ultimate ORF 10H13026) was amplified by PCR; 6-His (N); TEV protease cleavage site (N); made in house; host or cells: E. coli BL21 (DE3*), vector pET22b+
T1 sequence (O60760 whole entry): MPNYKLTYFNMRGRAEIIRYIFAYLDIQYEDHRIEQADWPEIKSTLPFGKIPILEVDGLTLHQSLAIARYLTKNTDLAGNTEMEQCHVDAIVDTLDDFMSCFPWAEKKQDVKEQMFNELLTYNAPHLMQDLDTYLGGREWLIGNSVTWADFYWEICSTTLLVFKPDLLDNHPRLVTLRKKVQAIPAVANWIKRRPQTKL
Assay type: biochemical
How it was run: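 RapidFire SPE–MS read-out calculated percent conversion from relative PGD2 and PGF2α (substrate surrogate) levels. Recombinant full-length human H-PGDS (His-tag, E. coli) turned over PGH2, produced in situ at ˜10 μM by human COX-2 (FLAG-tag, Sf9 cells) acting on arachidonic acid.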
In the case of `O=C(Nc1ccc(N2CCOCC2)cc1)[C@H]1C[C@H](Oc2cccc3scnc23)C1` [Example 243, (trans)-3-(Benzo[d]thiazol-4-yloxy)-N-(4-morpholinophenyl)cyclobutanecarboxamide], the IC50 was 10 to 79.4 nM. In the case of `Cc1ccc(N2CC(NC(=O)N3CC(Oc4cccc5scnc45)C3)C2)nc1` [Example 244], the IC50 was 10 to 79.4 nM. Compound `O=C(NC1CN(c2cccnn2)C1)[C@H]1C[C@H](Oc2cccc3scnc23)C1` [Example 245, (trans)-3-(Benzo[d]thiazol-4-yloxy)-N-(1-(pyridazin-3-yl)azetidin-3-yl)cyclobutanecarboxamide] has an IC50 of 10 to 79.4 nM. For `O=C(NC1CN(c2cnccn2)C1)[C@H]1C[C@H](Oc2cccc3scnc23)C1` [Example 246, (trans)-3-(Benzo[d]thiazol-4-yloxy)-N-(1-(pyrazin-2-yl)azetidin-3-yl)cyclobutanecarboxamide], the IC50 was 10 to 79.4 nM. `CS(=O)(=O)c1ccc(NC(=O)[C@H]2C[C@H](Oc3cccc4scnc34)C2)c(F)c1` [Example 247, (trans)-3-(Benzo[d]thiazol-4-yloxy)-N-(2-fluoro-4-(methylsulfonyl)phenyl)cyclobutanecarboxamide] showed an IC50 of 10 to 79.4 nM. With `O=C(Nc1cccc(N2CCOCC2)c1)[C@H]1C[C@H](Oc2cccc3scnc23)C1` [Example 248, (trans)-3-(Benzo[d]thiazol-4-yloxy)-N-(3-morpholinophenyl)cyclobutanecarboxamide] the IC50 was 10 to 79.4 nM. `Cn1nccc1NC(=O)[C@H]1C[C@H](Oc2cccc3scnc23)C1` [Example 249, (trans)-3-(Benzo[d]thiazol-4-yloxy)-N-(1-methyl-1H-pyrazol-5-yl)cyclobutanecarboxamide] gave an IC50 of 100 to 1000 nM. `O=C(NCc1cccs1)[C@H]1C[C@H](Oc2cccc3scnc23)C1` [Example 250] showed an IC50 of 100 to 1000 nM. `CC1(NC(=O)N2CC(Oc3cccc4scnc34)C2)CN(c2ncccn2)C1` [Example 251] gave an IC50 of 100 to 1000 nM. Work on `O=C(NCc1ccsc1)[C@H]1C[C@H](Oc2cccc3scnc23)C1` [Example 252] yielded an IC50 of 100 to 1000 nM. `O=C(NC1CCCCC1)[C@H]1C[C@H](Oc2cccc3scnc23)C1` [Example 253] gave an IC50 of 100 to 1000 nM. `Cc1ccc(CNC(=O)[C@H]2C[C@H](Oc3cccc4scnc34)C2)o1` [Example 255, (trans)-3-(Benzo[d]thiazol-4-yloxy)-N-((5-methylfuran-2-yl)methyl)cyclobutanecarboxamide] showed an IC50 of 100 to 1000 nM. `CC(C)(O)[C@H]1CC[C@H](NC(=O)[C@H]2C[C@H](Oc3cc(Cl)ccc3Cl)C2)CC1` [Example 257, (trans)-3-(2,5-Dichlorophenoxy)-N-((trans)-4-(2-hydroxypropan-2-yl)cyclohexyl)cyclobutanecarboxamide] showed an IC50 of 100 to 1000 nM. `CC(C)(O)[C@H]1CC[C@H](NC(=O)N2CC(Oc3ccccc3OC(F)(F)F)C2)CC1` [Example 258] gave an IC50 of 100 to 1000 nM. `CC(C)(O)[C@H]1CC[C@H](NC(=O)[C@H]2C[C@H](Oc3ccccc3OC(F)(F)F)C2)CC1` [Example 259, (trans)-N-((trans)-4-(2-Hydroxypropan-2-yl)cyclohexyl)-3-(2-(trifluoromethoxy)phenoxy)cyclobutanecarboxamide] was tested, and the IC50 was 100 to 1000 nM. In the case of `CC(C)(O)[C@H]1CC[C@H](NC(=O)N2CC(Oc3cccc4ccoc34)C2)CC1` [Example 260, 3-(Benzofuran-7-yloxy)-N-((trans)-4-(2-hydroxypropan-2-yl)cyclohexyl)azetidine-1-carboxamide], the IC50 was 10 to 79.4 nM. With `N#Cc1cnc(NC(=O)[C@H]2C[C@H](Oc3cccc4ccoc34)C2)s1` [Example 261, (trans)-3-(Benzofuran-7-yloxy)-N-(5-cyanothiazol-2-yl)cyclobutanecarboxamide] the IC50 was 10 to 79.4 nM. Compound `CCOC(=O)Cc1csc(NC(=O)[C@H]2C[C@H](Oc3cccc4ccoc34)C2)n1` [Example 262, Ethyl 2-(2-((trans)-3-(benzofuran-7-yloxy)cyclobutanecarboxamido)thiazol-4-yl)acetate] has an IC50 of 10 to 79.4 nM. `CCOC(=O)Cc1nnc(NC(=O)[C@H]2C[C@H](Oc3cccc4ccoc34)C2)s1` [Example 263, Ethyl 2-(5-((trans)-3-(benzofuran-7-yloxy)cyclobutanecarboxamido)-1,3,4-thiadiazol-2-yl)acetate] showed an IC50 of 10 to 79.4 nM. `CC(=O)c1cnc(NC(=O)[C@H]2C[C@H](Oc3cccc4ccoc34)C2)s1` [Example 264, (trans)-N-(5-Acetylthiazol-2-yl)-3-(benzofuran-7-yloxy)cyclobutanecarboxamide] showed an IC50 of 10 to 79.4 nM. Compound `CC(C)(O)c1cnc(NC(=O)[C@H]2C[C@H](Oc3cccc4ccoc34)C2)s1` [Example 265, (trans)-3-(Benzofuran-7-yloxy)-N-(5-(2-hydroxypropan-2-yl)thiazol-2-yl)cyclobutanecarboxamide] has an IC50 of 10 to 79.4 nM. `Cc1nnc(NC(=O)[C@H]2C[C@H](Oc3cccc4ccoc34)C2)s1` [Example 266, (trans)-3-(Benzofuran-7-yloxy)-N-(5-methyl-1,3,4-thiadiazol-2-yl)cyclobutanecarboxamide] was tested, and the IC50 was 10 to 79.4 nM. `CC(C)(O)[C@H]1CC[C@H](NC(=O)[C@H]2C[C@H](Oc3cccc4ccoc34)C2)CC1` [Example 267, (trans)-3-(Benzofuran-7-yloxy)-N-((trans)-4-(2-hydroxypropan-2-yl)cyclohexyl)cyclobutanecarboxamide] showed an IC50 of 10 to 79.4 nM. In the case of `CC(C)(O)[C@H]1CC[C@H](NC(=O)[C@H]2C[C@H](Oc3cccc4c3OCC4)C2)CC1` [Example 268, (trans)-3-((2,3-Dihydrobenzofuran-7-yl)oxy)-N-((trans)-4-(2-hydroxypropan-2-yl)cyclohexyl)cyclobutanecarboxamide], the IC50 was 10 to 79.4 nM. `CC(C)(O)[C@H]1CC[C@H](NC(=O)[C@H]2C[C@H](Oc3cccc4c(Br)coc34)C2)CC1` [Example 269, (trans)-3-((3-Bromobenzofuran-7-yl)oxy)-N-((trans)-4-(2-hydroxypropan-2-yl)cyclohexyl)cyclobutanecarboxamide] showed an IC50 of 10 to 79.4 nM. `Cc1coc2c(O[C@H]3C[C@H](C(=O)N[C@H]4CC[C@H](C(C)(C)O)CC4)C3)cccc12` [Example 270, (trans)-N-((trans)-4-(2-Hydroxypropan-2-yl)cyclohexyl)-3-((3-methylbenzofuran-7-yl)oxy)cyclobutanecarboxamide] gave an IC50 of 100 to 1000 nM. In the case of `CC(=O)c1csc(NC(=O)[C@H]2C[C@H](Oc3cccc4c(Br)coc34)C2)n1` [Example 271, (trans)-N-(4-Acetylthiazol-2-yl)-3-((3-bromobenzofuran-7-yl)oxy)cyclobutanecarboxamide], the IC50 was 10 to 79.4 nM. `CC(=O)c1csc(NC(=O)[C@H]2C[C@H](Oc3cc(Cl)ccc3OC(F)F)C2)n1` [Example 272, (trans)-N-(4-Acetylthiazol-2-yl)-3-(5-chloro-2-(difluoromethoxy)phenoxy)cyclobutanecarboxamide] showed an IC50 of 10 to 79.4 nM. In the case of `CC(C)(O)[C@H]1CC[C@H](NC(=O)[C@H]2C[C@H](Oc3cc(Cl)ccc3OC(F)F)C2)CC1` [Example 273, (trans)-3-(5-Chloro-2-(difluoromethoxy)phenoxy)-N-((trans)-4-(2-hydroxypropan-2-yl)cyclohexyl)cyclobutanecarboxamide], the IC50 was 10 to 79.4 nM. In the case of `COc1ccc(Cl)cc1O[C@H]1C[C@H](C(=O)Nc2nc(C(C)=O)cs2)C1` [Example 274, (trans)-N-(4-Acetylthiazol-2-yl)-3-(5-chloro-2-methoxyphenoxy)cyclobutanecarboxamide], the IC50 was < 10 nM. In the case of `COc1ccc(Cl)cc1O[C@H]1C[C@H](C(=O)N[C@H]2CC[C@H](C(C)(C)O)CC2)C1` [Example 275, (trans)-3-(5-Chloro-2-methoxyphenoxy)-N-((trans)-4-(2-hydroxypropan-2-yl)cyclohexyl)cyclobutanecarboxamide], the IC50 was 10 to 79.4 nM. With `COc1cc(F)ccc1O[C@H]1C[C@H](C(=O)Nc2nc(C(C)=O)cs2)C1` [Example 276, (trans)-N-(4-Acetylthiazol-2-yl)-3-(4-fluoro-2-methoxyphenoxy)cyclobutanecarboxamide] the IC50 was 10 to 79.4 nM. Compound `COc1cc(F)ccc1O[C@H]1C[C@H](C(=O)N[C@H]2CC[C@H](C(C)(C)O)CC2)C1` [Example 277, (trans)-3-(4-Fluoro-2-methoxyphenoxy)-N-((trans)-4-(2-hydroxypropan-2-yl)cyclohexyl)cyclobutanecarboxamide] has an IC50 of 100 to 1000 nM. Compound `CC(C)(O)[C@H]1CC[C@H](NC(=O)[C@H]2C[C@H](Oc3ccccc3OC(F)F)C2)CC1` [Example 278, (trans)-3-(2-(Difluoromethoxy)phenoxy)-N-((trans)-4-(2-hydroxypropan-2-yl)cyclohexyl)cyclobutanecarboxamide] has an IC50 of 10 to 79.4 nM. In the case of `CC(=O)c1csc(NC(=O)[C@H]2C[C@H](Oc3ccccc3OC(F)F)C2)n1` [Example 279], the IC50 was 10 to 79.4 nM. `CC(C)(O)[C@H]1CC[C@H](NC(=O)[C@H]2C[C@H](Oc3cccc4cc(F)cnc34)C2)CC1` [Example 280, (trans)-3-((3-Fluoroquinolin-8-yl)oxy)-N-((trans)-4-(2-hydroxypropan-2-yl)cyclohexyl)cyclobutanecarboxamide] showed an IC50 of 100 to 1000 nM. `O=C(Nc1nccs1)[C@H]1C[C@H](Oc2cccc3cc(F)cnc23)C1` [Example 281, (trans)-3-((3-Fluoroquinolin-8-yl)oxy)-N-(thiazol-2-yl)cyclobutanecarboxamide] gave an IC50 of 10 to 79.4 nM. Compound `CC(C)(O)[C@H]1CC[C@H](NC(=O)[C@H]2C[C@H](Oc3ccccc3Cl)C2)CC1` [Example 282, (trans)-3-(2-Chlorophenoxy)-N-((trans)-4-(2-hydroxypropan-2-yl)cyclohexyl)cyclobutanecarboxamide] has an IC50 of 100 to 1000 nM. For `CC(C)(O)[C@H]1CC[C@H](NC(=O)[C@H]2C[C@H](Oc3cc(F)cc(F)c3)C2)CC1` [Example 283, (trans)-3-(3,5-Difluorophenoxy)-N-((trans)-4-(2-hydroxypropan-2-yl)cyclohexyl)cyclobutanecarboxamide], the IC50 was 100 to 1000 nM.
